Data on five compounds can be found in patent US11472787B2, “Docosahexaenoic acid endocannabinoid epoxide derivative compositions” (The Board of Trustees of the University of Illinois, priority 2017, dated 2022).

The target of series [1] is Fatty acid amide hydrolase (FAAH) (Sus scrofa (Pig), UniProt Q9TUI8). Description: Susceptibility to FAAH hydrolysis in pig brain membrane preparations. As to conditions: pig forebrain membranes, amide at 20 μM, 40 min. The protocol:
Fatty acid amide hydrolase (FAAH) is a ubiquitously expressed protein in various mammals and the sequence of the protein has shown to be highly conserved in humans, mouse and pig. […] The preparation of pig forebrain membranes was achieved using dounce homogenization in buffer (50 mM Tris pH 7.4, 1 mM EDTA and 3 mM MgCl2) and membrane pelleting as previously described (Hillard, C. J.; Wilkison, D. M.; Edgemond, W. S.; Campbell, W. B. Characterization of the kinetics and distribution of N-arachidonylethanolamine (anandamide) hydrolysis by rat brain. Biochim Biophys Acta 1995, 1257, 249-56). Incubations contained 5 μg forebrain protein in a 0.5 mL reaction containing 50 mM Tris (pH 7.4), 1 mM EDTA, 3 mM MgCl2, and amide at 20 μM. At 40 min reactions were quenched with methanol containing 1 mM PMSF and centrifuged to pellet protein (10,000 g×10 min). The supernatant was collected and analyzed via LC-MS/MS as outlined below.
The products of hydrolysis were measured by LC-MS/MS as indicated in materials and methods section.

The test system of a further series is BV-2 microglial cells. Briefly: Anti-inflammatory assay in LPS-stimulated microglial cells. As to conditions: BV-2 cells, 4 hours pre-incubation, 25 ng/mL LPS. Type of series: cell-based, mouse. The procedure: The anti-inflammatory effect of parent compounds was tested by measuring nitrite production in Bv2 microglial cells and the reduction in pro-inflammatory cytokine IL-6 (FIG. 4). Experiments were performed with mouse BV-2 microglial cells. Cells were grown and maintained in Dulbecco's modified Eagle's medium supplemented with 10% fetal bovine serum, 1% streptomycin and penicillin at 37° C. in a 5% CO2 humidified air atmosphere. BV-2 cells were seeded in 24-well plates (200K cells/mL) and grown to 80-90% confluency. For regioisomer screening and dose response studies, media was replaced with serum-free media and the cells were pre-incubated with the regioisomers for 4 hours prior to stimulation with 25 ng/mL LPS (Sigma-Aldrich, USA). Production of nitric oxide (NO) and cell toxicity and IL-6 production were measured.

The next series has as its target CNR1 (CB1) (Homo sapiens (Human), UniProt P21554). Description: Presto-Tango β-arrestin recruitment assay, CNR1. It counts as cell-based. As to conditions: HTLA cells. The protocol: (§1) Binding of the parent compounds to putative receptors CNR1 and CNR2 (cannabinoid receptors 1& 2) was measured by a Presto-Tango assay (FIG. 5A and FIG. 5B). […] HTLA were received from the Roth Lab and CNR1 and CNR2 plasmids were purchased from Addgene. HTLA cells were maintained in DMEM with 10% FBS containing 2 μg/mL of puromycin and 100 μg/mL of hygromycin B at 37° C. in a 5% CO2 humidified air atmosphere and grown to 80-90% confluency. Cells were then seeded at 20,000 cells per 100 uL into poly-L-lysine coated 96-well plate. After 18-24 hrs, cells were transfected with CNR2 (0.1 ug/well) using Calfectin as the transfection reagent. Transfection media was replaced after 12-18 hours with serum-media and proceeded for ˜36 hours. On the day of the assay, serum-media was replaced with serum-free media for 4 hours, then the compounds were added in a log dose manner in DMSO to a final well volume of 200 uL and incubated overnight. The next day, media was removed and 20 μL of Bright-Glo solution was added to the cells and incubated for 20 min at room temperature in the dark and measured for luminescence. Relative luminescence units (RLU) values were normalized to % receptor response, plotted as a function of compound concentration and analyzed using “DoseResp” in OriginPro.
In general terms: Activated receptors often draw arrestin, which recruitment assays turn into a signal.

Series [2] relates to 143B cells. Description: Scratch (wound migration) assay in 143B cells. Type of series: cell-based. The protocol: (§2) A scratch assay was performed to analyze the anti-migratory properties of the three derivatives (FIGS. 3A-3C and 7). Cells were grown and maintained in Dulbecco's modified Eagle's medium supplemented with 10% fetal bovine serum, 1% streptomycin and penicillin at 37° C. in a 5% CO2 humidified air atmosphere in a 12 well plate to a confluent monolayer and then a scratch was made across the center and images were taken. The media was changed and appropriate compounds and controls were added and images of the scratch were taken every 2 hours. The images were processed by ImageJ software. In HOS cells (FIG. 3A), all 10,11-EDP derivatives restricted wound migration at 5 μM concentration.

The subject of series [3] is HOS cells. Description: Scratch (wound migration) assay in HOS cells. It counts as cell-based. As to conditions: 5 μM; for restriction of wound migration as compared to control: over 10 hours. The protocol: as §2
For a further series, the system named is HUVEC cells. Description: Endothelial tube formation (angiogenesis) assay on matrigel. Type of series: cell-based. As to conditions: 0.5 μM or 1 μM compound, 5 hours. The source says:
Increased angiogenesis is one of the hallmarks of cancer. The development of neo-vascularization is key for the adequate supply of nutrients and oxygen to the site of metastasis. Endothelial tube formation on matrix has been established as a cellular model for angiogenesis. Endothelial HUVEC cells form a networks of tubes when plated on matrigel and the tube formation in presence and absence of treatment can be quantified as a measure of restricted angiogenic potential.
Angiogenesis in endothelial HUVEC cells was measured using abcam angiogenesis kit (ab204726). Briefly, HUVEC cells at passage 2 (p=2) were grown to 80% confluency. The matrigel provided was thawed overnight and 50 μL was put into each well of a 96 well plate that had been chilled overnight in a −20° C. freezer. The plate was rocked slightly and then allowed to incubate at 37° C. for 1 hour. 15,000 HUVEC cells were then plated into the wells and were treated with vehicle control or 0.5 μM or 1 μM compound. A no matrix control and a control with vinblastine (inhibitor of angiogenesis) was also performed. All wells were performed in duplicates. The plates were then incubated for 5 hours at 37° C. […] The wells were imaged using a fluorescent microscope and analyzed using ImageJ with Angiogenesis Analyzer Plugin. […] The tube formation was assessed by Image J analysis.

Series [4] deals with MG63 cells. Briefly: Scratch (wound migration) assay in MG63 cells. Type of series: cell-based. As to conditions: MG63 cell line. The protocol: as §2
Another series addresses CNR2 (CB2) (Homo sapiens (Human), UniProt P34972). Description: Presto-Tango β-arrestin recruitment assay, CNR2. Type of series: cell-based. As to conditions: HTLA cells. The protocol: as §1
The test system of series [5] is 143B cells. Description: Annexin V binding apoptosis assay in 143B cells. Type of series: cell-based. As to conditions: 12.5 μM, 24 hours. The protocol: (§3) All three amino-modified derivatives of 10,11-EDP were tested for their apoptotic activity using a BD biosciences Annexin V binding assay for apoptosis at 12.5 μM concentration (FIG. 2). Cells were grown and maintained in Dulbecco's modified Eagle's medium supplemented with 10% fetal bovine serum, 1% streptomycin and penicillin at 37° C. in a 5% CO2 humidified air atmosphere in 12 well plate to 90% confluency and then appropriate amount of compound or control was added to the well. The cells were incubated for 24 hours and then prepared for apoptosis assays as indicated in BD biosciences Annexin V binding assay kit instructions and analyzed by BD Accuri C6 flow cytometer and FCS flow software. […] However, their effects were not consistent in trend among the three cell lines. The cyclopropyl analog seemed to have the highest pro-apoptotic potential among the three within error limits. […] In 143B cells the increase in pro-apoptotic potential was only 18.8±0.3% for the iso-propyl derivative as compared to 25.7±0.4% for the n-propyl derivative.

Series [6] deals with MG63 cells. Description: Annexin V binding apoptosis assay in MG63 cells. It counts as cell-based. As to conditions: 12.5 μM, 24 hours. The protocol: as §3
Series [7] has as its system HOS cells. Description: Annexin V binding apoptosis assay in HOS cells. Type of series: cell-based. As to conditions: 12.5 μM, 24 hours. The procedure: as §3

Sequence of Fatty acid amide hydrolase (FAAH) (Q9TUI8 whole entry): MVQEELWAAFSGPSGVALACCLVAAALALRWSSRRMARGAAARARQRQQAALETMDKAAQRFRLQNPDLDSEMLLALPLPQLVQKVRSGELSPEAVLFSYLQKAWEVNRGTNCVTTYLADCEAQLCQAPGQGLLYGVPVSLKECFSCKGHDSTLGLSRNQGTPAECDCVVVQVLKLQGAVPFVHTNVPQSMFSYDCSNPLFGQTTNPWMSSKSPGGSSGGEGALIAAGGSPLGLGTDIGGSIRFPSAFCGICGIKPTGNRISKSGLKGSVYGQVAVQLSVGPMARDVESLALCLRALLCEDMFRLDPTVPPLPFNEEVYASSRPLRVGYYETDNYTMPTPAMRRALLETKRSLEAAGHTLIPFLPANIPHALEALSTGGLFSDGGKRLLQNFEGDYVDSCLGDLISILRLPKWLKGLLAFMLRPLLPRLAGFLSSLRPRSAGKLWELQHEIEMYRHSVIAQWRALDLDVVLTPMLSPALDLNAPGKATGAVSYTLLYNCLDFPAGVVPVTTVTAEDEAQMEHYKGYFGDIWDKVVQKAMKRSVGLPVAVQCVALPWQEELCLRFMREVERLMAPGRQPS

With `CCC1OC1C/C=C\C/C=C\C/C=C\C/C=C\C/C=C\CCC(=O)NCCO` (stereo not shown) [19,20-EDP-EA], in [1], the rate of hydrolysis was 150 pmol min^−1 mg protein^−1. In the series with BV-2 microglial cells, the IL-6 production result was “reduction in 11-6 and nitrite in a dose dependent manner”; the nitrite production result was “reduction in 11-6 and nitrite in a dose dependent manner”.

Usually EC50 stands for the midpoint of the concentration-response curve. A low value points to an effect from little substance. Regarding `CC/C=C\C/C=C\C/C=C\CC1OC1C/C=C\C/C=C\CCC(=O)NCCO` (stereo not shown) [10,11-EDP-EA, reference compound], the figures for the concentration for a half-maximal effect (EC50) on CNR1 (CB1) and at CNR2 (CB2) were 430 pM and 22500 pM, respectively. Also, in the series on 143B cells [2], the “restriction in wound migration as compared to the control” value was 1-1.9 times. For the same compound, the “restriction of wound migration as compared to control” value (from here on “restriction … compared to control”) in the series with HOS cells [3] was 1.00-1.44 times. The compound further showed a rate of hydrolysis in series [1] of 30.0±0.3 pmol min^−1 mg protein^−1. Further, the “tube formation (angiogenesis)” value with HUVEC cells is “Prevent Angiogenesis”. Further, the “restriction in wound healing as compared to the control” value in the series with MG63 cells [4] is reported as 1-2 times.

`CC/C=C\C/C=C\C/C=C\CC1OC1C/C=C\C/C=C\CCC(=O)NC1CC1` (stereo not shown) [10,11-EDP-CA, (4Z,7Z)—N-Cyclopropyl-9-(3-((2Z,5Z,8Z)-undeca-2,5,8-trien-1-yl)oxiran-2-yl)nona-4,7-dienamide]: the half-maximal effective concentration (EC50) worked out at 30 pM at CNR1 (CB1) and 460 pM on CNR2 (CB2). The “apoptosis (apoptotic potential)” value in the series on 143B cells [5] came out at 21.3±1.9%; in the series with MG63 cells [6] it was 17.09±4.4%; in the series with HOS cells [7], 27.19±4.05%. Besides, the “restriction in wound migration as compared to the control” value with 143B cells [2] is on record as “most potent”. The “inhibition of migration more than vehicle control” value in the series on HOS cells [3] (8 and 10 hour time points) is 4.5-6 times. The “restriction … compared to control” value in the series on HOS cells [3] is listed as “most potent”. This compound came in with a rate of hydrolysis in [1] of 5.17±0.06 pmol min^−1 mg protein^−1. For the same compound, the “restriction in wound healing as compared to the control” value in the series on MG63 cells [4] is reported as “comparable to 10, 1-EDP-EA”.

For `CC/C=C\C/C=C\C/C=C\CC1OC1C/C=C\C/C=C\CCC(=O)NC(C)CO` (stereo not shown) [10,11-EDP-IA, (4Z,7Z)—N-(1-Hydroxypropan-2-yl)-9-(3-((2Z,5Z,8Z)-undeca-2,5,8-trien-1-yl)oxiran-2-yl)nona-4,7-dienamide], the EC50 came to 70 pM on CNR1 (CB1) and 80 pM at CNR2 (CB2). For the same compound, the results for the “apoptosis (apoptotic potential)” value with 143B cells [5], in the series with MG63 cells [6] and with HOS cells [7] were 18.8±0.3%, 17.48±2.8% and 20.15±1.75%, respectively. The “restriction in wound migration as compared to the control” value in the series on 143B cells [2] is reported as 1-3.9 times. Further, the “restriction … compared to control” value with HOS cells [3] is recorded as 1-1.75 times. In series [1], this compound had a rate of hydrolysis of 0.99±0.04 pmol min^−1 mg protein^−1. For the same compound, the “restriction in wound healing as compared to the control” value in the series with MG63 cells [4] is reported as “slightly poorer than the control”.

`CC/C=C\C/C=C\C/C=C\CC1OC1C/C=C\C/C=C\CCC(=O)NCCCO` (stereo not shown) [10,11-EDP-NA, (4Z,7Z)—N-(3-Hydroxypropyl)-9-(3-((2Z,5Z,8Z)-undeca-2,5,8-trien-1-yl)oxiran-2-yl)nona-4,7-dienamide]: the EC50 on CNR1 (CB1) is 190 pM; at CNR2 (CB2) it was 7300 pM. Also, the “apoptosis (apoptotic potential)” value was 25.7±0.4% in the series with 143B cells [5], 15.15±3.28% in the series on MG63 cells [6] and 17.05±1.4% in the series on HOS cells [7]. Besides, the “restriction in wound migration as compared to the control” value in the series on 143B cells [2] is listed as 1-1.47 times. In addition, the “restriction … compared to control” value in the series with HOS cells [3] is listed as 1-1.7 times. Moreover, in the series on MG63 cells [4], the “restriction in wound healing as compared to the control” value is reported as “slightly poorer than the control”.
